Where two headings read alike, the source gives them in different places.
How the values were obtained:
[1] = test system: SW620 colon carcinoma cells; test: MTS cytotoxicity assay, ET-743 with or without PARP inhibitor; format: cell-based; settings: for IC50: 72 hours, MTS; for increased sensitization of cells to ET-743: SW620, PARP inhibitor (nicotinamide 10 mM or NU1025 100 μM) plus ET-743 versus ET-743 alone
Experimental: Four hours later, media containing ET-743 and the PARP inhibitor was washed out and replaced with another fixed dose of PARP inhibitor. Finally, 4 hours later, a final fixed dose of PARP inhibitor was added. 72 hours following the initial treatment, an MTS cytotoxicity assay was performed.

[2] = test system: PARP-1 +/+ and −/− mouse embryonic fibroblasts (MEFs); test: MTS cytotoxicity assay in PARP-1 +/+ and −/− MEFs; format: cell-based; settings: PARP-1 −/− versus +/+ MEFs, 72 hours after treatment
Experimental: PARP-1 +/+and −/− mouse embryonic fibroblasts (MEFs) were seeded into 96-well plates at a density of 5,000 cells/well. After 24 hours, cells were treated with serially diluted concentrations of ET-743. 72 hours following the initial treatment, an MTS (3-(4,5-dimethylthiazol-2-yl)-5([…])-2-(4-sulfophenyl)-2H-tetrazolium) cytotoxicity assay was performed. Results were plotted as percent cellular viability versus ET-743 or Zalypsis® concentration (FIGS. 1a and 1b, respectively).

PARP = PARP (Homo sapiens, UniProt P09874); settings: cited from earlier work
Chain of PARP (P09874 whole entry): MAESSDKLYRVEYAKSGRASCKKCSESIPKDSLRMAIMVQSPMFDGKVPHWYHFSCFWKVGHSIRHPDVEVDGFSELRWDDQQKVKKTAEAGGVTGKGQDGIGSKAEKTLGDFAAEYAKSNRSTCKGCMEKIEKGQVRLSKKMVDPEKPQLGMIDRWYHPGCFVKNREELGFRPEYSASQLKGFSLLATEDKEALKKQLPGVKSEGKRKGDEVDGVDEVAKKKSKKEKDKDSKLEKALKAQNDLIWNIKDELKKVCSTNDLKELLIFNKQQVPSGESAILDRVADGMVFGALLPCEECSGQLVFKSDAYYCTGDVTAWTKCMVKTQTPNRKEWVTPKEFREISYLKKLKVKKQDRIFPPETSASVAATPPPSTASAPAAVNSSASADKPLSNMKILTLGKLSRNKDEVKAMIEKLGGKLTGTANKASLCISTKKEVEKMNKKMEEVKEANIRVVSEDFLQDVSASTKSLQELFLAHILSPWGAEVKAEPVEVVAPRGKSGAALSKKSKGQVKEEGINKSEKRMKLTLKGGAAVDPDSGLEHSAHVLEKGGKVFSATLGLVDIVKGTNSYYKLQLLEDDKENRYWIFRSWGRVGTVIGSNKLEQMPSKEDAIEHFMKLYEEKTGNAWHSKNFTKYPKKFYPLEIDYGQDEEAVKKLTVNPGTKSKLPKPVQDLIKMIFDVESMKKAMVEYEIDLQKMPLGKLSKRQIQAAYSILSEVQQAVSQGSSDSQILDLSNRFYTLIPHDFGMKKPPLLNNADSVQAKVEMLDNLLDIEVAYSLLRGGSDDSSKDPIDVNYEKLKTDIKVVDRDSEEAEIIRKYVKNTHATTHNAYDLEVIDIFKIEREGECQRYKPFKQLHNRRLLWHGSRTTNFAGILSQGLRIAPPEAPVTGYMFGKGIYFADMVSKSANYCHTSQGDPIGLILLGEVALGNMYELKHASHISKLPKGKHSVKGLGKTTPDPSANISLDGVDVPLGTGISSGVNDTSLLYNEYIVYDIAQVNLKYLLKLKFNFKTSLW

With `COc1cc2c(cc1O)CCN[C@]21CS[C@@H]2c3c(OC(C)=O)c(C)c4c(c3[C@H](COC1=O)N1[C@@H]2[C@H]2c3c(cc(C)c(OC)c3O)C[C@@H]([C@@H]1O)N2C)OCO4` [ET-743, Ecteinascidin-743] the IC50 ([1]; Homo sapiens, SW-620, SW620, ET-743 alone, NU1025 experiment, read-out: IC50 ET-743 alone (FIG. 2b)) was 1.8 nM, the IC50 ([1]; Homo sapiens, SW-620, SW620, ET-743 alone, nicotinamide experiment, read-out: IC50 ET-743 alone (FIG. 2a)) was 2 nM and the IC50 ([1]; Homo sapiens, SW-620, SW620, NU1025 100 μM, 2 hour pre-treatment and repeated fixed doses, read-out: IC50 ET-743 in combination with NU1025 (FIG. 2b)) was 0.37 nM. For the same molecule, the IC50 ([1]; Homo sapiens, SW-620, SW620, nicotinamide 10 mM, 2 hour pre-treatment and repeated fixed doses, read-out: IC50 ET-743 in combination with nicotinamide (FIG. 2a)) was 0.41 nM and the “increase in cellular sensitivity on loss of PARP-1” value [2] was ~30 fold.

In the case of `Cc1nc2c(O)cccc2c(=O)[nH]1` [NU1025], the “cytotoxicity, PARP inhibitor treatment alone” value ([1]; SW620, NU1025 alone (100 μM), versus untreated cells) is given as “no increased level of cytotoxicity above the untreated cells”, the “increased sensitization of cells to ET-743” value [1] is given as 4.8 fold and the “potency as PARP inhibitor relative to nicotinamide” value (PARP) is given as “up to 1,000 times”.

In the case of `COc1c(C)cc2c(c1O)[C@@H]1[C@@H]3Cc4c(OC(C)=O)c(C)c5c(c4[C@H](CNC(=O)/C=C/c4cccc(C(F)(F)F)c4)N3[C@@H](O)[C@H](C2)N1C)OCO5` [Zalypsis®], the “increase in cellular sensitivity on loss of PARP-1” value [2] is reported as 110 fold.

For `NC(=O)c1cccnc1` [nicotinamide], the inhibition at 10000 µM ([1]; Homo sapiens, SW-620, SW620, nicotinamide alone (10 mM), read-out: cell death, PARP inhibitor treatment alone) was ~20% and the “increased sensitization of cells to ET-743” value [1] was 4.9 fold.
